What was measured:
Type in all cases: physicochemical
[1] = Equilibrium of mitraphylline isomers in the two-phase system 1-octanol/water; conditions: for resulting equilibrium (water): aqueous phase; for resulting equilibrium (octanol): octanol phase
Text: (§1) Protonation of the alkaloid hinders partition into the solvent, but the dependence of the distribution coefficient on pH is different for each isomer due to their different basicity. When the isomerization takes place in such a two-phase system, the equilibrium obtained in the organic phase is different from that in the aqueous phase. As an example, the coefficients of distribution Ko/w of mitraphylline and isomitraphylline between 1-octanol and water at three pH values and the corresponding equilibria are given in table 6 (FIG.11). |Coefficients of distribution between 1-octanol and water KO/W for |mitraphylline and isomitraphylline and the resulting equilibria as a |function of pH at 25° C. (% per weight).

[2] = physchem; conditions: 1-octanol/water
Text: as §1

[3] = Effect of temperature and solvent on the equilibrium composition of the mitraphylline isomers
Text: The use of solvents with different polarity gave different equilibria, while other conditions were identical.

[4] = Effect of temperature and solvent on the equilibrium composition of the pteropodine isomers
Description: | Effect of temperature and solvent on the equilibrium composition | of the pteropodine isomers (temperature from 25 to | 50° C., % per weight) The use of solvents with different polarity gave different equilibria, while other conditions were identical.

[5] = Effect of pH on equilibrium and rate of isomerization; conditions: for dependence of isomer equilibrium mixture on pH: water-methanol 9:1, c=30 mg/l
Text: It is known from the literature (J. -L. Pousset, J. Poisson and M. Shamma, Bull.Soc.Chim. (1967), 2766) that oxindole alkaloids isomerize via a zwitterionic intermediate which is formed at the β-amino carboxyl system. There a double bond is formed between the amino nitrogen and the β-carbon, the bond between α and β-carbon is opened, and the spiro centre at the co-carbon becomes free for inversion (FIG. 2). […] The pH of a mixture of 9 parts of water and 1 part of methanol was adjusted to values from 2 to 9 by addition of phosphoric acid or sodium hydroxide, respectively. Pteropodine (c=30 mg/l) was isomerized in these solvents until the equilibrium was reached. […] The dependence of the pteropodine equilibrium on pH in pure water was investigated, too (FIG. 3b). […] (FIG. 4).

[6] = Isomerization of pteropodine in hexafluoropropan-2-ol; conditions: 18 mg/l, 8 days at 20° C.
Description: It is known from the literature that oxindole alkaloids undergo isomerization in polar solvents. Therefore hexafluoropropan-2-ol as a highly polar solvent was examined for its suitability as a medium for isomerization. A solution of pteropodine in hexafluoropropan-2-ol with a concentration of 18 mg/l was allowed to rest for 8 days at 20° C. Continually, samples were taken and analyzed. […] Pyridine has been reported to be a suitable solvent for the isomerization, although its polarity is very low. Our results confirmed this, but only when at least small portions of water were present. […] Important causes of solvent polarity are the dielectricity constant and the ability to form hydrogen bonds. The correlation of dielectricity and rate of reaction was investigated (table 1).

[7] = Effect of temperature on the rate of isomerization of pteropodine; conditions: water, c=20 mg/l, 50 hours
Description: The effect of temperature on the rate of reaction was investigated. Pteropodine was dissolved in water (c=20 mg/l) and isomerized at various temperatures for 50 hours. The reactions were monitored (FIG. 9). An increase of temperature by 12° C. accelerated the reaction by a factor of 5.

[8] = Rate of isomerization of pteropodine in solvents and solvent mixtures; conditions: 50° C.; for rate coefficient of isomerization k: k = k12 + k13 + k14 from initial rate
Description: It is known from the literature that oxindole alkaloids undergo isomerization in polar solvents. Therefore hexafluoropropan-2-ol as a highly polar solvent was examined for its suitability as a medium for isomerization. A solution of pteropodine in hexafluoropropan-2-ol with a concentration of 18 mg/l was allowed to rest for 8 days at 20° C. Continually, samples were taken and analyzed. […] Pyridine has been reported to be a suitable solvent for the isomerization, although its polarity is very low. Our results confirmed this, but only when at least small portions of water were present. […] Important causes of solvent polarity are the dielectricity constant and the ability to form hydrogen bonds. The correlation of dielectricity and rate of reaction was investigated (table 1). | Correlation of the rate coefficient of isomerization of pteropodine and |dielectricity constant ε in pure solvents at 50° C.^a | ^a The rate coefficient k was determined from the initial rate of | isomerization of pteropodine and, therefore, is a composite coefficient k | = k12 + k13 + k14 and has the dimension [h^-1 ]. The | coefficient k12 describes the transformation of pteropodine to | isopteropodine, k13 to speciophylline and k14 to uncarine F, | respectively. […] But it was noticed that solvents with the ability to form hydrogen bonds, like formamide, water, glycerol or methanol, effect faster isomerization than solvents without this ability. […] Consequently, mixtures of solvents were produced from one part with a high dielectricity constant and another part with the ability to form hydrogen bonds as a proton donor. Mixtures of one part formamide and one part alcohol turned out to be suitable reaction media. Water is the only solvent which combines a high dielectricity constant with the ability to form hydrogen bonds to an extent which allows satisfactory reaction rates. However, oxindole alkaloids are practically insoluble in water. Thus, it is obvious to use suitable co-solvents.

COC(=O)C1=COC(C)C2CN3CCC4(C(=O)Nc5ccccc54)C3CC12 (stereo not drawn) [Isomitraphylline, isomitraphylline]
resulting equilibrium (water) ([1]; pH 3, 25° C.): 11.9 % per weight
resulting equilibrium (water) ([1]; pH 5, 25° C.): 0.5 % per weight
resulting equilibrium (water) ([1]; pH 7, 25° C.): 0.08 % per weight
resulting equilibrium (octanol) ([1]; pH 3, 25° C.): 32.0 % per weight
resulting equilibrium (octanol) ([1]; pH 5, 25° C.): 93.9 % per weight
resulting equilibrium (octanol) ([1]; pH 7, 25° C.): 78.8 % per weight
log KO/W ([2]; pH 3): 0.43
log KO/W ([2]; pH 5): 2.3
log KO/W ([2]; pH 7): 2.8
equilibrium composition ([3]; 25° C., methanol): 77.5 % per weight
equilibrium composition ([3]; 25° C., water): 65.6 % per weight
equilibrium composition ([3]; 37° C., methanol): 75.0 % per weight
equilibrium composition ([3]; 37° C., water): 67.5 % per weight
equilibrium composition ([3]; 50° C., methanol): 73.7 % per weight
equilibrium composition ([3]; 50° C., water): 68.0 % per weight

COC(=O)C1=CO[C@@H](C)[C@@H]2CN3CC[C@@]4(C(=O)Nc5ccccc54)[C@@H]3C[C@H]12 [Isopteropodine, isopteropodine]
equilibrium composition ([4]; 25° C., methanol): 75.4 % per weight
equilibrium composition ([4]; 25° C., water): 60.9 % per weight
equilibrium composition ([4]; 37° C., methanol): 75.5 % per weight
equilibrium composition ([4]; 37° C., water): 59.6 % per weight
equilibrium composition ([4]; 50° C., methanol): 73.5 % per weight
equilibrium composition ([4]; 50° C., water): 59.4 % per weight

COC(=O)C1=COC(C)C2CN3CCC4(C(=O)Nc5ccccc54)C3CC12 (stereo not drawn) [Mitraphylline, mitraphylline]
resulting equilibrium (water) ([1]; pH 3, 25° C.): 35.6 % per weight
resulting equilibrium (water) ([1]; pH 5, 25° C.): 1.0 % per weight
resulting equilibrium (water) ([1]; pH 7, 25° C.): 0.12 % per weight
resulting equilibrium (octanol) ([1]; pH 3, 25° C.): 20.5 % per weight
resulting equilibrium (octanol) ([1]; pH 5, 25° C.): 4.6 % per weight
resulting equilibrium (octanol) ([1]; pH 7, 25° C.): 21.0 % per weight
log KO/W ([2]; pH 3): -0.24
log KO/W ([2]; pH 5): 0.67
logD ([2]; pH 7, log KO/W): 2.5
equilibrium composition ([3]; 25° C., methanol): 22.5 % per weight
equilibrium composition ([3]; 25° C., water): 34.4 % per weight
equilibrium composition ([3]; 37° C., methanol): 25.0 % per weight
equilibrium composition ([3]; 37° C., water): 32.5 % per weight
equilibrium composition ([3]; 50° C., methanol): 26.3 % per weight
equilibrium composition ([3]; 50° C., water): 32.0 % per weight

COC(=O)C1=COC(C)C2CN3CCC4(C(=O)Nc5ccccc54)C3CC12 (stereo not drawn) [Pteropodine, pteropodine]
equilibrium composition ([4]; 25° C., methanol): 22.9 % per weight
equilibrium composition ([4]; 25° C., water): 29.6 % per weight
equilibrium composition ([4]; 37° C., methanol): 22.6 % per weight
equilibrium composition ([4]; 37° C., water): 29.8 % per weight
equilibrium composition ([4]; 50° C., methanol): 23.5 % per weight
equilibrium composition ([4]; 50° C., water): 29.6 % per weight
dependence of isomer equilibrium mixture on pH ([5]; acidic solutions): depended characteristically on the pH value
dependence of isomer equilibrium mixture on pH ([5]; neutral or alkaline solutions): independent of pH in neutral or alkaline solutions
rate of reaction with increasing proton concentration ([5]; pH 2 to 9): decreased with increasing proton concentration
isomerization [6]: No isomerization was observed
acceleration of the reaction by an increase of temperature by 12° C. (factor) [7]: 5
rate coefficient of isomerization k ([8]; dimethyl sulfoxide): 0.00007 h⁻¹
rate coefficient of isomerization k ([8]; dioxane): 0.0000004 h⁻¹
rate coefficient of isomerization k ([8]; formamide): 0.005 h⁻¹
rate of isomerization k ([8]; formamide-hexafluorpropan-2-ol (1:1)): 0.0037 h⁻¹
rate of isomerization k ([8]; formamide-methanol (1:1)): 0.0050 h⁻¹
rate coefficient of isomerization k ([8]; glycerol): 0.0072 h⁻¹
rate coefficient of isomerization k ([8]; methanol): 0.0020 h⁻¹
rate of isomerization k ([8]; methanol-dimethyl sulfoxide (1:1)): 0.0018 h⁻¹
rate of isomerization k ([8]; methanol-dioxane (1:1)): 0.0024 h⁻¹
rate coefficient of isomerization k ([8]; pyridine): 0.00002 h⁻¹
rate coefficient of isomerization k ([8]; water): 1.11 h⁻¹
rate of isomerization k ([8]; water-acetonitrile (1:1)): 0.042 h⁻¹
rate of isomerization k ([8]; water-dioxane (1:1)): 0.0012 h⁻¹
rate of isomerization k ([8]; water-formamide (1:1)): 0.067 h⁻¹
rate of isomerization k ([8]; water-methanol (1:1)): 0.043 h⁻¹
rate of isomerization k ([8]; water-pyridine (1:1)): 0.002 h⁻¹

COC(=O)C1=COC(C)C2CN3CCC4(C(=O)Nc5ccccc54)C3CC12 (stereo not drawn) [Speciophylline, speciophylline]
equilibrium composition ([4]; 25° C., methanol): 0.4 % per weight
equilibrium composition ([4]; 25° C., water): 4.3 % per weight
equilibrium composition ([4]; 37° C., methanol): 0.5 % per weight
equilibrium composition ([4]; 37° C., water): 4.5 % per weight
equilibrium composition ([4]; 50° C., methanol): 1.0 % per weight
equilibrium composition ([4]; 50° C., water): 4.6 % per weight

COC(=O)C1=COC(C)C2CN3CCC4(C(=O)Nc5ccccc54)C3CC12 (stereo not drawn) [Uncarine F, uncarine F]
equilibrium composition ([4]; 25° C., methanol): 1.3 % per weight
equilibrium composition ([4]; 25° C., water): 5.2 % per weight
equilibrium composition ([4]; 37° C., methanol): 1.4 % per weight
equilibrium composition ([4]; 37° C., water): 6.1 % per weight
equilibrium composition ([4]; 50° C., methanol): 2.0 % per weight
equilibrium composition ([4]; 50° C., water): 6.4 % per weight

Reference: patent US5723625A, “Process for the production of specific isomer mixtures from oxindole alkaloids” (Immodal Pharmaka Gesellschaft m.b.H, priority 1994, dated 1998)
